Data taken from publication PMC7469199, “Immunosuppressive Activities of Novel PLA2 Inhibitors from Xenorhabdus hominickii, an Entomopathogenic Bacterium” (Insects, 2020).

How the values were obtained:
S. exigua larvae [1] = experiment: Insecticidal activity by injection; format: in vivo, Spodoptera exigua; conditions: for Insecticidal Activities, Injection: median lethal dose by Probit analysis, S. exigua larvae
Description: All data for continuous variables were subjected to one-way analysis of variance (ANOVA) using PROG GLM in SAS program. Mortality data were subjected to arcsine transformation and used for ANOVA. Means were compared with the least significant difference (LSD) test at Type I error of 0.05. Median toxicity values such as median lethal dose (LD50), median lethal concentration (LC50), median lethal time (LT50), and median inhibition concentrations (IC50) were calculated by Probit analysis using EPA Probit Analysis Program, ver. 1.5 (U.S. Environmental Protection Agency, Washington, DC, USA). […]

secretory PLA2 (sPLA2) = experiment: Secretory PLA2 (sPLA2) activity; format: biochemical, Spodoptera exigua; conditions: for Median Inhibitory Concentrations (IC50), sPLA2: S. exigua, synthetic compounds; for Potency for inhibiting sPLA2 (in words): based on IC50 values
Description: (§1) To characterize PLA2 inhibition by test chemicals, activities of two different PLA2s [secretory PLA2 (sPLA2) and cytosolic PLA2 (cPLA2)] were assessed with methods described by Vatanparast et al..

cytosolic PLA2 (cPLA2) = experiment: Cytosolic PLA2 (cPLA2) activity; format: biochemical, Spodoptera exigua; conditions: for Median Inhibitory Concentrations (IC50), cPLA2: S. exigua, synthetic compounds; for Potency for inhibiting cPLA2 (in words): based on IC50 values
Description: as §1

[2] = test system: hemocyte phagocytosis of S. exigua; experiment: Phagocytosis assay with FITC-labeled E. coli in L5 larvae; format: in vivo, Spodoptera exigua; conditions: for Median Inhibitory Concentration (IC50), Phagocytosis: injected into L5 larvae with FITC-labeled E. coli; for Inhibition of phagocytosis (in words): S. exigua hemocytes
Description: For in vivo phagocytosis assay, test chemical (1 µL) and FITC-labeled E. coli (5 µL, 5 × 10^4 cells/µL) were injected to L5 larva. Hemolymph (50 µL) was collected at 15 min after injection and mixed with 50 µL of ice cold ACB. After centrifugation at 700 × g for 3 min at 4 °C, the supernatant plasma was replaced with 100 µL of TC-100 insect cell culture medium (Welgene, Daegu, Korea). Hemocyte suspension (10 µL) was placed onto a slide and over laid with 10 µL glycerol (50%, v/v). Hemocytes undergoing phagocytosis were determined by fluorescence-emitting cells under a fluorescence microscope (Leica, Wetzlar, Germany) at 40× magnification. For in vitro phagocytosis, hemocyte suspension and labeled bacteria mixture (30 µL) were incubated in a dark place for 1 h at room temperature. Hemocytes were then washed three times with PBS by centrifugation at 700× g for 2 min at 4 °C and finally resuspended in TC-100 medium. This hemocyte suspension was observed under the fluorescence microscope in FITC or DIC mode after forming monolayers on glass slides.

[3] = test system: hemocyte PLA2 of S. exigua; experiment: Nonspecific (total) hemocyte PLA2 activity, pyrene-labeled phospholipid fluorometric assay; format: biochemical, Spodoptera exigua; conditions: for Median Inhibitory Concentrations (IC50), Total PLA2: hemocyte extract of S. exigua L5 larvae, synthetic compounds; for Inhibitory activity against hemocyte PLA2 (in words): S. exigua hemocyte PLA2, extracts, fractions or synthetic compounds
Description: Hemocyte PLA2 activity was fluorometrically determined with a pyrene-labeled phospholipid substrate using a spectrofluorometer (VICTOR multi-label plate reader, PerkinElmer, Waltham, MA, USA) at excitation and emission wavelengths of 345 and 398 nm, respectively. For measuring PLA2 activity, hemolymph was collected from ~10 L5 larvae. Hemocytes and plasma were separated by centrifugation at 800× g for 3 min at 4 °C. Hemocytes were then homogenized in 500 µL of PBS with a polytron (Ultra-Turrax T8, Ika Laboratory, Funkentshort, Germany). After centrifugation at 14,000× g for 5 min at 4 °C, protein concentration of the supernatant was determined by Bradford assay using bovine serum albumin (BSA) as the standard. The reaction mixture was prepared in a 96-well microplate by adding 129 μL of 50 mM Tris buffer (pH 7.0), 2 μL of 1 M CaCl2, and 2 μL of 10% BSA into each well. A sample solution consisted of 5 μL of test bacterial metabolites and 10 μL of hemocyte enzyme extract ([…]). The plate was then incubated at room temperature for 30 min. Enzyme reaction was then initiated by adding pyrene-labeled PL substrate (2 μL) to the reaction mixture.

S. exigua larvae [4] = experiment: Feeding toxicity, leaf-dipping method; format: in vivo, Spodoptera exigua; conditions: for Insecticidal Activities, Feeding: median lethal concentration by Probit analysis, leaf-dipping
Description: (§2) For the virulence test of X. hominickii, 24 h-cultured cells (10^8 cfu/mL) were diluted with sterile PBS. After surface sterilization with 95% ethanol, each L5 larva was injected with 1 µL of test compound (1 µg/larva) along with bacterial suspension (10^2 cfu/larva). Injection was performed through the first abdominal proleg using a micro syringe. Injected larvae were incubated at room temperature individually in 9 cm Petri dishes. For oral toxicity assay of B. thuringiensis, a small piece (2 × 2 cm) of Chinese cabbage was dipped in 500 ppm of Bt or a mixture of Bt (500 ppm) with 500 ppm of test chemical for 5 min. After a brief (5 min) drying under a dark condition, the treated leaf was supplied to individual test larva in 9 cm Petri dish for 24 h at room temperature. After 24 h, larvae were fed with fresh cabbage leaves. Each treatment was replicated three times with 10 larvae per replication. […] Larvae were considered dead if they were unable to move in a coordinated manner when prodded with a blunt probe.
All data for continuous variables were subjected to one-way analysis of variance (ANOVA) using PROG GLM in SAS program. Mortality data were subjected to arcsine transformation and used for ANOVA. Means were compared with the least significant difference (LSD) test at Type I error of 0.05. Median toxicity values such as median lethal dose (LD50), median lethal concentration (LC50), median lethal time (LT50), and median inhibition concentrations (IC50) were calculated by Probit analysis using EPA Probit Analysis Program, ver. 1.5 (U.S. Environmental Protection Agency, Washington, DC, USA).
These compounds were also tested for their feeding toxicities using a leaf-dipping method.

[5] = test system: hemocyte nodule formation; experiment: Nodulation assay after E. coli injection in L5 larvae; format: in vivo, Spodoptera exigua; conditions: for Median Inhibitory Concentration (IC50), Nodulation: injected into L5 larvae with E. coli, nodules counted after 8 h
Description: To assess nodule formation, immune challenge was performed by injecting 3 µL of Escherichia coli Top10 (10^4 cells/larva) (Invitrogen, Madison, WI, USA) through the abdominal proleg of L5 larvae using a microsyringe (Hamilton, Reno, NV, USA). After incubating at 25 °C for 8 h, test insects were dissected to count the number of melanized nodules under a stereo microscope (Stemi SV11, Zeiss, Jena, Germany) at 50× magnification. For chemical test, 1 µL aliquot of test chemical at different concentrations was injected into each larva along with E. coli. AA was injected at 10 μg per larva. Each treatment was independently replicated five times.

Sf9 cells = experiment: Cytotoxicity test (MTT); format: cell-based; conditions: for Cytotoxicity (MIC, minimum inhibitory concentration): MTT, 24 h at 28 °C
Description: Cytotoxicity of each secondary metabolite was evaluated by 3-(4,5 dimethylthiazol-2-yl)-2,5-diphenyl tetrazolium bromide (MTT) assay according to the method described by Mollah et al.. with a slight modification. Briefly, Sf9 cells (1.2 × 10^4 cells in 200 μL of TC-100 medium) were seeded into each 96-well. After adding each test chemical (2.5 μL in DMSO), the plate was incubated at 28 °C for 24 h. Control cells were treated with 2.5 μL of DMSO. After 24 h incubation, 10 μL of MTT (5 mg/mL in PBS) was added to each well and cells were cultured for another 4 h at 28 °C. Formazan granules formed in viable cells were dissolved in 50 μL of DMSO. Absorbance was then measured at 540 nm using a microplate reader (Victor Multilabel Plate Reader, PerkinElmer, Waltham, MA, USA).

S. exigua larvae [6] = experiment: Effect on pathogenicity of X. hominickii (co-injection); format: in vivo, Spodoptera exigua; conditions: L5 larvae injected with Xh 10^2 cfu/larva along with inhibitor (5 µg/larva Fig. 7A; 2 µg/larva Fig. S6); 4 days after treatment
Description: as §2, with “After surface sterilization with 95% ethanol, each L5 larva was injected with 1 µL of test compound (1 µg/larva) along with bacterial suspension (10^2 cfu/larva).” left out

S. exigua larvae [7] = experiment: Effect on pathogenicity of Bacillus thuringiensis (oral, leaf dipping); format: in vivo, Spodoptera exigua; conditions: cabbage leaf dipped in Bt 500 ppm mixed with inhibitor 500 ppm; 4 days after treatment
Description: as §2

mammals = conditions: cited from earlier work

Compound | Insecticidal Activities, Injection (S. exigua larvae [1]) | Median Inhibitory Concentrations (IC50), sPLA2 (secretory PLA2 (sPLA2)) | Potency for inhibiting sPLA2 (in words) (secretory PLA2 (sPLA2)) | Median Inhibitory Concentrations (IC50), cPLA2 (cytosolic PLA2 (cPLA2)) | Median Inhibitory Concentration (IC50), Phagocytosis [2] | Median Inhibitory Concentrations (IC50), Total PLA2 [3] | Insecticidal Activities, Feeding (S. exigua larvae [4]) | Median Inhibitory Concentration (IC50), Nodulation [5] | Cytotoxicity (MIC, minimum inhibitory concentration) (Sf9 cells) | Potency for inhibiting cPLA2 (in words) (cytosolic PLA2 (cPLA2)) | Inhibition of phagocytosis (in words) [2] | Inhibitory activity against hemocyte PLA2 (in words) [3] | also measured
CCCCCCCCCCCCCCCCCCCCCC [DS, docosane] | 49.54 ± 4.55 a µg/larva | 1.22 ± 0.15 a µg/mL | least potent | 0.32 ± 0.02 b µg/mL | 8.40 ± 0.68 b ng/larva | 0.81 ± 0.04 b µg/mL | 3554.0 ± 100.18 a µg/mL | 1.11 ± 0.09 b ng/larva | 1.0 ± 0.03 a µg/mL | – | – | – | –
CCCCCC=CCC=CCC=CCC=CCCCC(=O)O [AA, 5,8,11,14-eicosatetraenoic acid, reference compound] | – | – | – | – | – | – | – | – | – | – | – | – | Reversal of suppressed phagocytosis by AA addition ([2]; AA 10 µg/larva with the eight compounds): reversed; Rescue of suppressed nodule formation by AA addition ([5]; AA 10 µg/larva co-injected with extract, subfraction or compound and E. coli): significantly (p < 0.05) rescued
CCOc1cc(O)ccc1OC [EMP, 3-ethoxy-4-methoxyphenol] | 18.95 ± 2.61 d µg/larva | 0.03 ± 0.005 f µg/mL | highly potent | 0.05 ± 0.004 ef µg/mL | 0.20 ± 0.03 g ng/larva | 0.04 ± 0.02 e µg/mL | 2100.34 ± 40.19 f µg/mL | 0.20 ± 0.02 f ng/larva | 0.1 ± 0.01 f µg/mL | highly potent | highly potent | most potent | Effect on X. hominickii pathogenicity / insecticidal activity (S. exigua larvae [6]): significantly (p < 0.05) increased; Killing of larvae after injection (in words) (S. exigua larvae [1]; individually injected to S. exigua larvae): most potent; Feeding (oral) toxicity (in words) (S. exigua larvae [4]; leaf-dipping method): most potent; Inhibition of nodule formation (in words) ([5]; S. exigua L5 larvae, E. coli challenge): high potency; Concentration inducing cytotoxicity (Sf9 cells): less than 1 µg/mL; Effect on B. thuringiensis insecticidal activity (S. exigua larvae [7]): significantly (p < 0.05) increased
CCCCCCCCOC(=O)c1ccc(C(=O)OCCCCCCCC)cc1 [DOTP, dioctyl terephthalate] | 38.89 ± 3.21 b µg/larva | 0.56 ± 0.05 c µg/mL | – | 0.06 ± 0.005 e µg/mL | 8.70 ± 0.89 b ng/larva | 0.16 ± 0.006 cd µg/mL | 3220.45 ± 90.91 b µg/mL | 1.10 ± 0.07 b ng/larva | 0.50 ± 0.01 c µg/mL | highly potent | – | – | Toxicity to mammals (in words) (mammals): relatively nontoxic
CCCCC(CC)CO (centres unmarked) [EH, 2-ethyl-1-hexanol] | 29.90 ± 3.05 c µg/larva | 0.05 ± 0.004 f µg/mL | highly potent | 0.11 ± 0.01 µg·days/mL | – | 0.14 ± 0.01 µg·days/mL | 2456.35 ± 50.88 e µg/mL | 0.40 ± 0.03 e ng/larva | 0.20 ± 0.02 e µg/mL | – | – | – | –
N#Cc1ccccc1C(=O)O [CBA, o-cyanobenzoic acid] | 54.96 ± 4.03 a µg/larva | 1.11 ± 0.11 a µg/mL | least potent | 0.38 ± 0.03 a µg/mL | 32.50 ± 2.35 a ng/larva | 0.86 ± 0.02 a µg/mL | 2850.65 ± 80.68 c µg/mL | 2.50 ± 0.22 a ng/larva | 0.50 ± 0.02 c µg/mL | least potent | least potent | least potent | –
